Data: US20250084084A1, “Crystalline form of (2R)-2-(5-fluoro-2-methoxypyridin-4-yl)-1-[(2S)-7-methyl-6-(pyrimidin-2-yl)-3,4-dihydro-1H-spiro[1,8-naphthyridine-2,3-pyrrolidin]-1-yl]propan-1-one” (Pfizer Inc., priority 2020, published 2025)

target: α-melanocyte-stimulating hormone receptor (hMC4R) (Homo sapiens (Human), UniProt P32245); test: In vitro binding affinity assay using hMC4R (radioligand competition binding, [125I]-(Nle4, D-Phe7)-α-MSH); settings: geometric mean, read-out: Ki (nM) geometric
Sequence (P32245 whole entry): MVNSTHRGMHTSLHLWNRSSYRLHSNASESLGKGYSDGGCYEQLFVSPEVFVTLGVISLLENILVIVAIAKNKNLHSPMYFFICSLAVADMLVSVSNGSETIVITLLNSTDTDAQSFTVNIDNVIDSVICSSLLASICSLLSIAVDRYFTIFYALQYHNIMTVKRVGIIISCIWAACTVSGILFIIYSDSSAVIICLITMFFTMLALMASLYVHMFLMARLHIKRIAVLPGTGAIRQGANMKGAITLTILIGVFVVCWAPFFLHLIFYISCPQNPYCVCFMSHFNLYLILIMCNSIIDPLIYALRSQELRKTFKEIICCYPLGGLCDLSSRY
Method in brief: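 Membranes from CHO cells stably expressing hMC4R (2 μg/well) incubated 2 h RT with [125I]-NDP-α-MSH and compound (300 nM-0.01 nM, 1% DMSO); 2 μM α-MSH defined nonspecific binding. Filtration and scintillation counting; Ki from IC50 via Cheng-Prusoff.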

SMILES	Ki
COc1cc([C@@H](C)C(=O)N2CC[C@@]3(CCc4cc(-c5nc(C)n(C(F)F)n5)c(C)nc4N3)C2)c(F)cn1 [Example 188, (2R)-1-{(2S)-6-[1-(difluoromethyl)-5-methyl-1H-1,2,4-triazol-3-yl]-7-methyl-3,4-dihydro-1H-spiro[1,8-naphthyridine-2,3′-pyrrolidin]-1′-yl}-2-(5-fluoro-2-methoxypyridin-4-yl)propan-1-one]	0.41 nM
COc1cc([C@@H](C)C(=O)N2CC[C@@]3(CCc4cc(-c5ccc(C(F)F)nc5)c(C)nc4N3)C2)c(F)cn1 [Example 174, (2R)-1-{(2S)-6-[6-(difluoromethyl)pyridin-3-yl)-7-methyl-3,4-dihydro-1H-spiro[1,8-naphthyridine-2,3′-pyrrolidin]-1′-yl}-2-(5-fluoro-2-methoxypyridin-4-yl)propan-1-one]	26 nM
COc1cc([C@@H](C)C(=O)N2CC[C@@]3(CCc4cc(-c5csc(C6CC6)n5)c(C)nc4N3)C2)c(F)cn1 [Example 171, (2R)-1-[(2S)-6-(2-cyclopropyl-1,3-thiazol-4-yl)-7-methyl-3,4-dihydro-1H-spiro[1,8-naphthyridine-2,3′-pyrrolidin]-1′-yl]-2-(5-fluoro-2-methoxypyridin-4-yl)propan-1-one]	3.6 nM
COc1cc([C@@H](C)C(=O)N2CC[C@@]3(CCc4cc(-c5cccc(OC(F)F)n5)c(C)nc4N3)C2)c(F)cn1 [Example 198, (2R)-1-{(2S)-6-[6-(difluoromethoxy)pyridin-2-yl]-7-methyl-3,4-dihydro-1H-spiro[1,8-naphthyridine-2,3′-pyrrolidin]-1′-yl}-2-(5-fluoro-2-methoxypyridin-4-yl)propan-1-one]	2.5 nM
COc1cc([C@@H](C)C(=O)N2CC[C@@]3(CCc4cc(-c5nccc(C(F)(F)F)n5)c(C)nc4N3)C2)c(F)cn1 [Example 143, (2R)-2-(5-fluoro-2-methoxypyridin-4-yl)-1-{(2S)-7-methyl-6-[4-(trifluoromethyl)pyrimidin-2-yl]-3,4-dihydro-1H-spiro[1,8-naphthyridine-2,3′-pyrrolidin]-1′-yl}propan-1-one]	1.3 nM
COc1cc([C@@H](C)C(=O)N2CC[C@@]3(CCc4cc(-c5nnc(N6CCCCC6)s5)c(C)nc4N3)C2)c(F)cn1 [Example 168, (2R)-2-(5-fluoro-2-methoxypyridin-4-yl)-1-{(2S)-7-methyl-6-[5-(piperidin-1-yl)-1,3,4-thiadiazol-2-yl]-3,4-dihydro-1H-spiro[1,8-naphthyridine-2,3′-pyrrolidin]-1′-yl}propan-1-one]	86 nM
COc1cc([C@@H](C)C(=O)N2CC[C@@]3(CCc4cc(-c5ncc(Cl)cn5)c(C)nc4N3)C2)c(F)cn1 [Example 144, (2R)-1-[(2S)-6-(5-chloropyrimidin-2-yl)-7-methyl-3,4-dihydro-1H-spiro[1,8-naphthyridine-2,3′-pyrrolidin]-1′-yl]-2-(5-fluoro-2-methoxypyridin-4-yl)propan-1-one]	2 nM
COc1cc([C@@H](C)C(=O)N2CC[C@@]3(CCc4cc(Cl)c(C)nc4N3)C2)c(F)cn1 (single isomer, unassigned) [Example 102]	110 nM
COc1cc([C@@H](C)C(=O)N2CC[C@@]3(CCc4cc(-c5ncccn5)c(C)nc4N3)C2)c(C)cn1 (single isomer, unassigned) [Example 136]	1.4 nM
COc1cc([C@@H](C)C(=O)N2CC[C@@]3(CCc4cc(-c5ccc6sc(C)nc6c5)c(C)nc4N3)C2)c(F)cn1 [Example 165, (2R)-2-(5-fluoro-2-methoxypyridin-4-yl)-1-[(2S)-7-methyl-6-(2-methyl-1,3-benzothiazol-5-yl)-3,4-dihydro-1H-spiro[1,8-naphthyridine-2,3′-pyrrolidin]-1′-yl]propan-1-one]	81 nM
COc1cc([C@@H](C)C(=O)N2CC[C@@]3(CCc4cc(-c5nc(N6CCOCC6)n(C)n5)c(C)nc4N3)C2)c(F)cn1 [Example 187, (2R)-2-(5-fluoro-2-methoxypyridin-4-yl)-1-{(2S)-7-methyl-6-[1-methyl-5-(morpholin-4-yl)-1H-1,2,4-triazol-3-yl]-3,4-dihydro-1H-spiro[1,8-naphthyridine-2,3′-pyrrolidin]-1′-yl}propan-1-one]	5.5 nM
COc1cc([C@@H](C)C(=O)N2CC[C@@]3(CCc4cc(-c5ccc(OC(F)F)nc5)c(C)nc4N3)C2)c(F)cn1 [Example 159, (2R)-1-{(2S)-6-[6-(difluoromethoxy)pyridin-3-yl]-7-methyl-3,4-dihydro-1H-spiro[1,8-naphthyridine-2,3′-pyrrolidin]-1′-yl}-2-(5-fluoro-2-methoxypyridin-4-yl)propan-1-one]	18 nM
COc1cc([C@@H](C)C(=O)N2CC[C@@]3(CCc4cc(-c5ccc(C(F)(F)F)cn5)c(C)nc4N3)C2)c(F)cn1 [Example 155, (2R)-2-(5-fluoro-2-methoxypyridin-4-yl)-1-{(2S)-7-methyl-6-[5-(trifluoromethyl)pyridin-2-yl]-3,4-dihydro-1H-spiro[1,8-naphthyridine-2,3′-pyrrolidin]-1′-yl}propan-1-one]	27 nM
COc1cc([C@@H](C)C(=O)N2CC[C@@]3(CCc4cc(-c5cnc(C)nc5)c(C)nc4N3)C2)c(F)cn1 [Example 151, (2R)-2-(5-fluoro-2-methoxypyridin-4-yl)-1-[(2S)-7-methyl-6-(2-methylpyrimidin-5-yl)-3,4-dihydro-1H-spiro[1,8-naphthyridine-2,3′-pyrrolidin]-1′-yl]propan-1-one]	23 nM
COc1cc([C@@H](C)C(=O)N2CC[C@@]3(CCc4cc(-c5nc(C)cc(C)n5)c(C)nc4N3)C2)c(F)cn1 [Example 184, (2R)-1-[(2S)-6-(4,6-dimethylpyrimidin-2-yl)-7-methyl-3,4-dihydro-1H-spiro[1,8-naphthyridine-2,3′-pyrrolidin]-1′-yl]-2-(5-fluoro-2-methoxypyridin-4-yl)propan-1-one]	6.3 nM
Cc1nc2c(cc1-c1nnn(C)n1)CC[C@@]1(CCN(C(=O)C(C)c3ccc(C(F)(F)F)cc3)C1)N2 (single isomer, unassigned) [Example 109]	0.73 nM
COc1cc([C@@H](C)C(=O)N2CC[C@@]3(CCc4cc(-c5ccc(OC(F)(F)F)cn5)c(C)nc4N3)C2)c(F)cn1 [Example 180, (2R)-2-(5-fluoro-2-methoxypyridin-4-yl)-1-{(2S)-7-methyl-6-[5-(trifluoromethoxy)pyridin-2-yl]-3,4-dihydro-1H-spiro[1,8-naphthyridine-2,3′-pyrrolidin]-1′-yl}propan-1-one]	21 nM

same assay, conditions: geometric mean, read-out: Ki (nM) geometric mean

SMILES	Ki
COc1cc([C@@H](C)C(=O)N2CC[C@@]3(CCc4cc(-c5ncccn5)c(C)nc4N3)C2)c(Cl)cn1 [Example 15, (2R)-2-(5-Chloro-2-methoxypyridin-4-yl)-1-[(2S)-7-methyl-6-(pyrimidin-2-yl)-3,4-dihydro-1H-spiro[1,8-naphthyridine-2,3′-pyrrolidin]-1′-yl]propan-1-one]	0.25 nM
Cc1ccc2c(n1)N[C@@]1(CC2)CCN(C(=O)Cc2ccc(F)cc2)C1 (single isomer, unassigned) [Example 87, 2-(4-fluorophenyl)-1-(7-methyl-3,4-dihydro-1H-spiro[1,8-naphthyridine-2,3′-pyrrolidin]-1′-yl)ethan-1-one]	48 nM
COc1cc([C@@H](C)C(=O)N2CC[C@@]3(CCc4ccc(C)nc4N3)C2)nc(C)n1 (single isomer, unassigned) [Example 23, 2-(6-methoxy-2-methylpyrimidin-4-yl)-1-(7-methyl-3,4-dihydro-1H-spiro[1,8-naphthyridine-2,3′-pyrrolidin]-1′-yl)propan-1-one]	21 nM
COc1cc([C@@H](C)C(=O)N2CC[C@@]3(CCc4cc(-c5ncc(Br)cn5)c(C)nc4N3)C2)c(F)cn1 [Example 22, (2R)-1-[(2S)-6-(5-bromopyrimidin-2-yl)-7-methyl-3,4-dihydro-1H-spiro[1,8-naphthyridine-2,3′-pyrrolidin]-1′-yl]-2-(5-fluoro-2-methoxypyridin-4-yl)propan-1-one]	2 nM
Cc1nc2c(cc1-c1cnn(C)c1)CC[C@@]1(CCN(C(=O)Cc3ccc(F)cc3)C1)N2 (stereo in doubt) [Example 89, 2-(4-fluorophenyl)-1-[7-methyl-6-(1-methyl-1H-pyrazol-4-yl)-3,4-dihydro-1H-spiro[1,8-naphthyridine-2,3′-pyrrolidin]-1′-yl]ethan-1-one]	1.7 nM
Cc1nc2c(cc1-c1nnn(C)n1)CC[C@@]1(CCN(C(=O)Cc3ccc(C(F)(F)F)cc3)C1)N2 (single isomer, unassigned) [Example 66, 1-[7-methyl-6-(2-methyl-2H-tetrazol-5-yl)-3,4-dihydro-1H-spiro[1,8-naphthyridine-2,3′-pyrrolidin]-1′-yl]-2-[4-(trifluoromethyl)phenyl]ethan-1-one]	250 nM
COc1cc([C@@H](C)C(=O)N2CC[C@@]3(CCc4cc(-c5nc(C(F)(F)F)n(C)n5)c(C)nc4N3)C2)c(Cl)cn1 (single isomer, unassigned) [Example 94]	1.2 nM
COc1cc([C@@H](C)C(=O)N2CCC3(CCc4cc(-c5coc(C)n5)c(C)nc4N3)C2)c(F)cn1 (mixture of isomers) [Example 33, (2R)-2-(5-fluoro-2-methoxypyridin-4-yl)-1-[7-methyl-6-(2-methyl-1,3-oxazol-4-yl)-3,4-dihydro-1H-spiro[1,8-naphthyridine-2,3′-pyrrolidin]-1′-yl]propan-1-one]	2.6 nM
[2H]c1cc([2H])nc(-c2cc3c(nc2C)N[C@@]2(CC3)CCN(C(=O)[C@H](C)c3cc(OC)ncc3F)C2)n1 [Example 18, (2R)-2-(5-Fluoro-2-methoxypyridin-4-yl)-1-{(2S)-7-methyl-6-[(4,6-2H2)pyrimidin-2-yl]-3,4-dihydro-1H-spiro[1,8-naphthyridine-2,3′-pyrrolidin]-1′-yl}propan-1-one]	0.18 nM
COc1cc([C@](C)(F)C(=O)N2CC[C@@]3(CCc4cc(-c5ncccn5)c(C)nc4N3)C2)ccn1 (single isomer, unassigned) [Example 46]	3.5 nM
COc1cc([C@@H](C)C(=O)N2CC[C@@]3(CCc4cc(-c5nc(C(F)(F)F)n(C)n5)c(C)nc4N3)C2)c(F)cn1 (single isomer, unassigned) [Example 92]	0.45 nM
